Source: the Kinase Knowledgebase extract (Sharma et al. 2016)

How the values were obtained:
EGFR = EGFR (UniProt P00533)
EGFR (human) = EGFR (human) (UniProt P00533); conditions: nih3t3
Chain of EGFR (human) (P00533 whole entry, looked up): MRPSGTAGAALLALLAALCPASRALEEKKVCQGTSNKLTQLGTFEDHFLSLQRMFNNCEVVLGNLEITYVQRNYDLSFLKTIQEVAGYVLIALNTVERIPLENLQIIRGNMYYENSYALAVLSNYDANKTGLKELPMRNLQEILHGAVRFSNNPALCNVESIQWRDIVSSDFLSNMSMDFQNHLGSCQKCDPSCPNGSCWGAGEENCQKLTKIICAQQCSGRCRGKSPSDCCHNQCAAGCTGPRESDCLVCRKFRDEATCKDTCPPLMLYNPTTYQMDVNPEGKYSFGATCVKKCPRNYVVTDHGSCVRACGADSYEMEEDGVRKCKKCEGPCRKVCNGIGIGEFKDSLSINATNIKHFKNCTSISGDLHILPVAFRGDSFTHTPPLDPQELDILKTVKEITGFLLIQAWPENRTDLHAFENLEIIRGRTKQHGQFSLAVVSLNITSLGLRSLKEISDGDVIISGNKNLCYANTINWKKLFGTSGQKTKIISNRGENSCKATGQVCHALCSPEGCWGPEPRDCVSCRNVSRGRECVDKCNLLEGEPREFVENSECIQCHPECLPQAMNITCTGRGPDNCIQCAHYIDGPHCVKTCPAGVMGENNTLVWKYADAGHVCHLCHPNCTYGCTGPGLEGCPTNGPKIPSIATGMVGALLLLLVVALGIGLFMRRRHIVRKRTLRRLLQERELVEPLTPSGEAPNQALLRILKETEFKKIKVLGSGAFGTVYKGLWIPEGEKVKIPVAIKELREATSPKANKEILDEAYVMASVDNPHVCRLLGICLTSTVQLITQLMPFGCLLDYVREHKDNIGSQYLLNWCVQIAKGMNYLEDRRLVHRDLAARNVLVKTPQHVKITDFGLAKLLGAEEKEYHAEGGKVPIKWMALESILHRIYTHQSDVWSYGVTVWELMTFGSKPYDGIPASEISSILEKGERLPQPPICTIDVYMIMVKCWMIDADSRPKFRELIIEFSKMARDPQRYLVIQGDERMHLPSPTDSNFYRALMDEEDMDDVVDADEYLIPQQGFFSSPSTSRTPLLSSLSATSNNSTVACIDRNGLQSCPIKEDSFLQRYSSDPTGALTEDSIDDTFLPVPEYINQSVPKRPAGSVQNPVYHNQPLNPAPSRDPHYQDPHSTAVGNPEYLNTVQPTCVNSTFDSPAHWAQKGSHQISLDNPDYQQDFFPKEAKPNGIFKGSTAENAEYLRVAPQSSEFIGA

Chain of EGFR (P00533 whole entry, looked up): as above

Cc1[nH]c(/C=C2\C(=O)Nc3ccc(S(=O)(=O)NC(C)C)cc32)c(C)c1CCCN(C)C
IC50 (EGFR): > 100 µM

Cc1cccc2c1/C(=C/c1[nH]c(C)c(CCCN(C)C)c1C)C(=O)N2
IC50 (EGFR (human)): 20.2 µM | IC50 (EGFR): > 100 µM

COc1ccc2c(c1)/C(=C/c1[nH]c(C)c(CCCN(C)C)c1C)C(=O)N2
IC50 (EGFR): > 100 µM

Cc1c(CCC(=O)O)c[nH]c1/C=C1\C(=O)Nc2ccc(Br)cc21
IC50 (EGFR (human)): > 50 µM

Cc1[nH]c(/C=C2\C(=O)Nc3ccccc32)c(C)c1CCCN(C)C
IC50 (EGFR (human)): 12.6 µM | IC50 (EGFR): > 100 µM

Cc1[nH]c(/C=C2\C(=O)Nc3ccc(Br)cc32)c(C)c1CCC(=O)O
IC50 (EGFR (human)): > 50 µM

Cc1c(CCC(=O)O)c[nH]c1/C=C1\C(=O)Nc2cc(Cl)ccc21
IC50 (EGFR (human)): > 50 µM

Cc1c(CCC(=O)O)c[nH]c1/C=C1\C(=O)Nc2ccccc21
IC50 (EGFR (human)): > 50 µM

COc1ccc2c(c1)NC(=O)/C2=C\c1[nH]c(C)c(CCCN(C)C)c1C
IC50 (EGFR): > 100 µM

COc1ccc(-c2ccc3c(c2)NC(=O)/C3=C\c2[nH]c(C)c(CCCN(C)C)c2C)cc1
IC50 (EGFR): > 100 µM

Cc1[nH]c(/C=C2\C(=O)Nc3ccc(S(N)(=O)=O)cc32)c(C)c1CCCN(C)C
IC50 (EGFR (human)): 6.59 µM | IC50 (EGFR): > 100 µM

Cc1[nH]c(/C=C2\C(=O)Nc3ccc(Cl)cc32)c(C)c1CCCN(C)C
IC50 (EGFR (human)): 7.49 µM | IC50 (EGFR): > 100 µM

Cc1[nH]c(/C=C2\C(=O)Nc3ccc(Br)cc32)c(C)c1CCCN(C)C
IC50 (EGFR (human)): 4.1 µM | IC50 (EGFR): > 100 µM

Cc1[nH]c(/C=C2\C(=O)Nc3ccc(Br)cc32)c(C)c1CCCN1CCOCC1
IC50 (EGFR (human)): 44.6 µM | IC50 (EGFR): > 100 µM

Cc1ccc2c(c1)/C(=C/c1[nH]c(C)c(CCCN(C)C)c1C)C(=O)N2
IC50 (EGFR (human)): 25.4 µM | IC50 (EGFR): > 100 µM

Cc1c(CCC(=O)O)c[nH]c1/C=C1\C(=O)Nc2cc(Br)ccc21
IC50 (EGFR (human)): > 50 µM

Cc1c(CCC(=O)O)c[nH]c1/C=C1\C(=O)Nc2cc(-c3ccccc3)ccc21
IC50 (EGFR (human)): 30.5 µM

Cc1[nH]c(/C=C2\C(=O)Nc3cc(-c4ccccc4)ccc32)c(C)c1CCCN(C)C
IC50 (EGFR (human)): 4 µM | IC50 (EGFR): > 100 µM

Cc1ccc2c(c1)/C(=C/c1[nH]c(C)c(CCC(=O)O)c1C)C(=O)N2
IC50 (EGFR (human)): > 50 µM

Cc1[nH]c(/C=C2\C(=O)Nc3cc(-c4ccccc4)ccc32)c(C)c1CCCN1CCOCC1
IC50 (EGFR (human)): > 50 µM | IC50 (EGFR): > 100 µM

Cc1ccc2c(c1)/C(=C/c1[nH]cc(CCC(=O)O)c1C)C(=O)N2
IC50 (EGFR (human)): > 50 µM

Cc1[nH]c(/C=C2\C(=O)Nc3ccc(I)cc32)c(C)c1CCC(=O)O
IC50 (EGFR (human)): > 50 µM

Cc1[nH]c(/C=C2\C(=O)Nc3ccccc32)c(C)c1CCCN1CCOCC1
IC50 (EGFR (human)): > 50 µM | IC50 (EGFR): > 100 µM

Cc1c(CCC(=O)O)c[nH]c1/C=C1\C(=O)Nc2ccc(I)cc21
IC50 (EGFR (human)): > 50 µM

Cc1c(CCC(=O)O)c[nH]c1/C=C1\C(=O)Nc2ccc(Cl)cc21
IC50 (EGFR (human)): 12 µM

Cc1[nH]c(/C=C2\C(=O)Nc3ccc(S(=O)(=O)N4CCOCC4)cc32)c(C)c1CCCN(C)C
IC50 (EGFR (human)): 29.8 µM | IC50 (EGFR): > 100 µM

COc1cccc(-c2ccc3c(c2)NC(=O)/C3=C\c2[nH]c(C)c(CCCN3CCOCC3)c2C)c1
IC50 (EGFR): > 100 µM

COc1ccc(-c2ccc3c(c2)NC(=O)/C3=C\c2[nH]c(C)c(CCCN3CCOCC3)c2C)cc1
IC50 (EGFR): > 100 µM

COc1ccccc1-c1ccc2c(c1)NC(=O)/C2=C\c1[nH]c(C)c(CCCN2CCOCC2)c1C
IC50 (EGFR): > 100 µM

Cc1cccc2c1/C(=C/c1[nH]cc(CCC(=O)O)c1C)C(=O)N2
IC50 (EGFR (human)): > 50 µM

Cc1[nH]c(/C=C2\C(=O)Nc3cc(O)ccc32)c(C)c1CCC(=O)O
IC50 (EGFR (human)): > 50 µM

Cc1cccc2c1/C(=C/c1[nH]c(C)c(CCC(=O)O)c1C)C(=O)N2
IC50 (EGFR (human)): > 50 µM

Cc1[nH]c(/C=C2\C(=O)Nc3cccc(CCO)c32)c(C)c1CCCN(C)C
IC50 (EGFR (human)): 25.3 µM | IC50 (EGFR): > 100 µM

Cc1[nH]c(/C=C2\C(=O)Nc3ccc(S(=O)(=O)N(C)C)cc32)c(C)c1CCCN(C)C
IC50 (EGFR (human)): 11.2 µM | IC50 (EGFR): > 100 µM

Cc1[nH]c(/C=C2\C(=O)Nc3ccc(Cl)cc32)c(C)c1CCC(=O)O
IC50 (EGFR (human)): > 50 µM

Cc1[nH]c(/C=C2\C(=O)Nc3cc(-c4ccccc4)ccc32)c(C)c1CCC(=O)O
IC50 (EGFR (human)): 32.7 µM

Cc1[nH]c(/C=C2\C(=O)Nc3cc(Cl)ccc32)c(C)c1CCCN(C)C
IC50 (EGFR (human)): 25.4 µM | IC50 (EGFR): 86.6 µM
